Data on nine molecules can be found in patent US11697648B2, “Fused pyrimidine pyridinone compounds as JAK inhibitors” (THERAVANCE BIOPHARMA R&D IP, LLC, priority 2019, dated 2023).

One data set concerns the target JAK3 (Homo sapiens (Human), UniProt P52333). Kind of data set: Biochemical JAK3 kinase assay (LanthaScreen). The settings on record: for JAK3 (pKi)-JAK1 (pKi): selectivity JAK3 over JAK1, difference of pKi. In outline: (§1)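 GST-JAK + GFP-STAT1 peptide, HEPES pH 7.5/MgCl2/EGTA/Brij-35 buffer; cpd preincubation 1 h RT; ATP start, 1 h RT; stop with 10 mM EDTA + 2 nM Tb-anti-pSTAT1; TR-FRET 520/495. 4-parameter IC50 → pKi (Cheng-Prusoff).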
In general terms: Time-resolved FRET reads energy transfer from a long-lived donor to a nearby acceptor.

The next data set has as its target Tyk2 (Homo sapiens (Human), UniProt P29597). Kind of data set: Biochemical Tyk2 kinase assay (LanthaScreen). In outline: as §1
The target in a further data set is JAK1 (Homo sapiens (Human), UniProt P23458). As to the kind of experiment: Biochemical JAK1 kinase assay (LanthaScreen). In outline:
as §1

In another data set the target is JAK2 (Homo sapiens (Human), UniProt O60674). Kind of data set: Biochemical JAK2 kinase assay (LanthaScreen). In a few lines:
as §1

Data set [1] deals with IL-2 stimulated STAT5 phosphorylation in Tall-1 human T cell line (JAK3). Kind of data set: Cellular JAK3 potency assay: inhibition of IL-2 stimulated pSTAT5 in Tall-1 T cells. The format is cell-based. To be noted: IL-2 stimulated pSTAT5, Tall-1 T cells. In a few lines:
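Tall-1 cells, 45,000 per well, preincubated 1 hour with compound at 37 °C, then stimulated 30 minutes with IL-2 at 300 ng/ml final. pSTAT5 (Tyr694/699) in lysates quantified by AlphaLISA SureFire Ultra. pIC50 derived from inhibition curves, given as mean with SD.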

The next data set deals with Caco-2 cell monolayers. As to the kind of experiment: Caco-2 permeation assay. The settings on record: 5 μM, A-B direction, with Verapamil (25 μM). It counts as in vitro ADME. In a few lines:
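Compounds tested at 5 μM in duplicate across Caco-2 monolayers, apical-to-basolateral, with 25 μM verapamil to block P-gp, at 37° C., 5% CO2. Apical and basal samples taken at 0 and 120 min, analysed by LC-MS/MS; Papp (cm/sec) calculated as dQ/(dt×Area×concentration).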

Chain of JAK1 (P23458 whole entry): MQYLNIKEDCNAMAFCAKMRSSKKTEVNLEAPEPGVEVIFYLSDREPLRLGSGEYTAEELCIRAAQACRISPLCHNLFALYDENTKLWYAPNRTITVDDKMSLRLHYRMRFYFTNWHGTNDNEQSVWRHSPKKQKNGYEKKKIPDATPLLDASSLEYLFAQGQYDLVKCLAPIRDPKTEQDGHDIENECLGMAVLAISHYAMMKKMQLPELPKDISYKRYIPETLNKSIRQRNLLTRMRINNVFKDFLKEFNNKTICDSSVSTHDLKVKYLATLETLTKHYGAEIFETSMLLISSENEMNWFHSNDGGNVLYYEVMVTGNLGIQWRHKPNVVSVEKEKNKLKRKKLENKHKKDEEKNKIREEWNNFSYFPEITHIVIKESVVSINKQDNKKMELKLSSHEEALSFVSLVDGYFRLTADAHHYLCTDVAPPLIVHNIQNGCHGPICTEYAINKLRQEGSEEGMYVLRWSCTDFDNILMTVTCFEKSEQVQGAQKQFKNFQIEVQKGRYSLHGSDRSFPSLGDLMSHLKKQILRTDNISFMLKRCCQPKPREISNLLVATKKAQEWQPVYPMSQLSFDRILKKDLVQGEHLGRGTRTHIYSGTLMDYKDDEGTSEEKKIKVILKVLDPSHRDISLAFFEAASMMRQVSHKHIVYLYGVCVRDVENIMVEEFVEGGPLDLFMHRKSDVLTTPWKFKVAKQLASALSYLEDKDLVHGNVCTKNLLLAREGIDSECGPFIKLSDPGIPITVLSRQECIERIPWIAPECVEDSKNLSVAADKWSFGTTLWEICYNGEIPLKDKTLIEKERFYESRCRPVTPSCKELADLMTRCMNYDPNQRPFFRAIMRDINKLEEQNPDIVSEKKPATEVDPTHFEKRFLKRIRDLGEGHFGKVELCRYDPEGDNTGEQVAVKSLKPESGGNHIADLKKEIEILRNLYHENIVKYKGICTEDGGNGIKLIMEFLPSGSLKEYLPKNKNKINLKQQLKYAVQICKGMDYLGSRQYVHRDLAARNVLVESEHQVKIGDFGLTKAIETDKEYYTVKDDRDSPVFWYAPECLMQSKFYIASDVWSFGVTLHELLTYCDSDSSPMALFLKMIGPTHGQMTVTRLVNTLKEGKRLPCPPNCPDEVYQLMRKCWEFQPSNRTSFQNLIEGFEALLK
Chain of JAK2 (O60674 whole entry): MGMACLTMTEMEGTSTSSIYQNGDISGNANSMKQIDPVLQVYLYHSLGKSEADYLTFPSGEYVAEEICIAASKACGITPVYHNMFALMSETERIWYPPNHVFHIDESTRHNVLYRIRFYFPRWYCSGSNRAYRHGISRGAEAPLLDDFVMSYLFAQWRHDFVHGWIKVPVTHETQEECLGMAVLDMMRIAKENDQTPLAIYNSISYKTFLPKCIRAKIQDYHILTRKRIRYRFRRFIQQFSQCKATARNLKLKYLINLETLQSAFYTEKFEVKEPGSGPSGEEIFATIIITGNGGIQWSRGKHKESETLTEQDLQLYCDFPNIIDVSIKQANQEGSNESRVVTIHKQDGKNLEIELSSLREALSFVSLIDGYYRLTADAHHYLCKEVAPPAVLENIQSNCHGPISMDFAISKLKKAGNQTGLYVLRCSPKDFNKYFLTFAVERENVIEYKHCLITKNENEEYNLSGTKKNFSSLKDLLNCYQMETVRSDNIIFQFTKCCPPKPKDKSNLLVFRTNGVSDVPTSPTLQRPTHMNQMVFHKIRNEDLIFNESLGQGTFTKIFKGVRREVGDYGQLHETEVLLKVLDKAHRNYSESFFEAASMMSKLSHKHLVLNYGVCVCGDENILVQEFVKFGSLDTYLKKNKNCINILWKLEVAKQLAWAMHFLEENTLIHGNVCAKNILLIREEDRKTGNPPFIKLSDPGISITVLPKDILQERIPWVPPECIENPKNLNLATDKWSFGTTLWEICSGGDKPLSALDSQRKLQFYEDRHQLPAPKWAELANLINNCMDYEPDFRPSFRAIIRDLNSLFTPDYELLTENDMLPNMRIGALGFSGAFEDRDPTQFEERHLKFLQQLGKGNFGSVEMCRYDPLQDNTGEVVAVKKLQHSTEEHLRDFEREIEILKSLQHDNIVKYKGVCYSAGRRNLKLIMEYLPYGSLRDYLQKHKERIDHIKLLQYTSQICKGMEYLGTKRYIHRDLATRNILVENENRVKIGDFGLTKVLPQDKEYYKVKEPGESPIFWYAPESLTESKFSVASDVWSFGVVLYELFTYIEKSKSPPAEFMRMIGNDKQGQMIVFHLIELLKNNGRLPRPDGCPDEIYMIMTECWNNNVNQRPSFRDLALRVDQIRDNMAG
Chain of Tyk2 (P29597 whole entry): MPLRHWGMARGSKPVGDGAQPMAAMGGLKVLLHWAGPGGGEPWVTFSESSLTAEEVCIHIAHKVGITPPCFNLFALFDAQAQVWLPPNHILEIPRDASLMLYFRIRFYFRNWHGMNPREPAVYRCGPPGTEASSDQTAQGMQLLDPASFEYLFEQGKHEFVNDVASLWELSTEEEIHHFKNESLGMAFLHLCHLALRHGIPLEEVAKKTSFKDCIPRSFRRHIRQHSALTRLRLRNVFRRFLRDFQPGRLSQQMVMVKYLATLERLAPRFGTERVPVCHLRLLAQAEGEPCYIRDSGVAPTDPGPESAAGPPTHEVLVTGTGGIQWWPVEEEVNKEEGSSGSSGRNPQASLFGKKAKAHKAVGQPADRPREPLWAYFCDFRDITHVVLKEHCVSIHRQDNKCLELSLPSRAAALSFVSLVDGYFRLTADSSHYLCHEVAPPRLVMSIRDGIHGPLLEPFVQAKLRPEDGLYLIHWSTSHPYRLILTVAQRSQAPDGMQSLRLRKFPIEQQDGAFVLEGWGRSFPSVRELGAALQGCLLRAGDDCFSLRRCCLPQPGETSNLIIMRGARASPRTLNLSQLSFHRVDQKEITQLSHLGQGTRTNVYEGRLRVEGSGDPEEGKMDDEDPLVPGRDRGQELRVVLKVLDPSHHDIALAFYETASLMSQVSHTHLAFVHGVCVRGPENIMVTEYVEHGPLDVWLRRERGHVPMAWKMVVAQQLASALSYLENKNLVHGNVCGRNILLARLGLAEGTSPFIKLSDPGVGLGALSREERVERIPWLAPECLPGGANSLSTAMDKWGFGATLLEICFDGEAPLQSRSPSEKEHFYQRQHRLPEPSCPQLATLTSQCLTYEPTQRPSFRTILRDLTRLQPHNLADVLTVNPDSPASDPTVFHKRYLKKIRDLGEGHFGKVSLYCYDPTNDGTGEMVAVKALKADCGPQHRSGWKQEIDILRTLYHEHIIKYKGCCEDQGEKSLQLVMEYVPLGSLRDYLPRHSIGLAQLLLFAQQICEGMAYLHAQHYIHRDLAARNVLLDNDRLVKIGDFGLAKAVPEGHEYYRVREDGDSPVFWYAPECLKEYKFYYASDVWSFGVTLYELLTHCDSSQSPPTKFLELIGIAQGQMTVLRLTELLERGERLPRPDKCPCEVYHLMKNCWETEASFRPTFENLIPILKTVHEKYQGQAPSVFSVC
Chain of JAK3 (P52333 whole entry): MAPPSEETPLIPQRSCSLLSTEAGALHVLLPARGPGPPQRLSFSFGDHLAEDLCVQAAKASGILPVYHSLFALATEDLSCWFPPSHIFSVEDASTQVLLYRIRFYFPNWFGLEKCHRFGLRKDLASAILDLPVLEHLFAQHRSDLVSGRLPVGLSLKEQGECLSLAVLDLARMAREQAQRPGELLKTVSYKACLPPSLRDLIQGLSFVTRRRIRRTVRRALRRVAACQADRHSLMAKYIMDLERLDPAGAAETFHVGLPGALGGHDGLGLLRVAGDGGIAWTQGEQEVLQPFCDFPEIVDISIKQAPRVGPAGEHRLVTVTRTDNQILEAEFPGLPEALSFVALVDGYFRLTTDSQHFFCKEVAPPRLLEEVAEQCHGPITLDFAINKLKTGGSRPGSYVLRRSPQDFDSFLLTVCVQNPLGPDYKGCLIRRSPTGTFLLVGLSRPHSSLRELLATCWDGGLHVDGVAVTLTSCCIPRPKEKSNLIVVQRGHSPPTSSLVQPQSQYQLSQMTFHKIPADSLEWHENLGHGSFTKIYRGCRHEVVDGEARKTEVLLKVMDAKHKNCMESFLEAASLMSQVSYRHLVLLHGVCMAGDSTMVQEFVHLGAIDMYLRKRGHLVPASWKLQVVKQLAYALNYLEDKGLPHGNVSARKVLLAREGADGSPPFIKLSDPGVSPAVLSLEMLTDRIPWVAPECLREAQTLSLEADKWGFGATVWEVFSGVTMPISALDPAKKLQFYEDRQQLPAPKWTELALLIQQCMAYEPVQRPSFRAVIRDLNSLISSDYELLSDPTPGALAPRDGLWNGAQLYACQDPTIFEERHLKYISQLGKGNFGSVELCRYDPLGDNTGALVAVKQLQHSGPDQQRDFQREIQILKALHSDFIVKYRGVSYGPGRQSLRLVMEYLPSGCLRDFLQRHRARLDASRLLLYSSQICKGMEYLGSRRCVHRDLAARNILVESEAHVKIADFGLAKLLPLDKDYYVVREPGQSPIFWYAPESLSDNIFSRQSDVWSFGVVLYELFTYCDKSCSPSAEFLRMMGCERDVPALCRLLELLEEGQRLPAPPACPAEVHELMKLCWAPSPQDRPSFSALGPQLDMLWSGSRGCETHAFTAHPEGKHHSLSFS

Consider `C=CC(=O)N1CC(CCn2c(=O)ccc3cnc(Nc4cccc(N5CCN(S(C)(=O)=O)CC5)c4)nc32)C1` [Example 127], for which, on JAK3, the “JAK 3 (pKi)” value was “A (A represents a pKi value≥10 (Ki≤0.1 nM))” and the “JAK3 (pKi)-JAK1 (pKi)” value is on record as “A (A represents a value of 3 or above)”. For the same molecule, the “Tyk 2 (pKi)” value on Tyk2 is on record as “E (E represents a pKi value of 7 or below (Ki of 100 nM or above))”. The “JAK 1 (pKi)” value on JAK1 is listed as “E (E represents a pKi value of 7 or below (Ki of 100 nM or above))”. In addition, the “JAK 2 (pKi)” value on JAK2 was “E (E represents a pKi value of 7 or below (Ki of 100 nM or above))”. Further, the “Tall-1 (pIC50)” value in data set [1] is “B (B represents a pC50 value between 6.7 (included) and 7.5 (IC50 between 200 nM and 32 nM))”. The “Caco Kp” value in the data set on Caco-2 cell monolayers is “A (A represents a value below 5×10^−6 cm/sec)”.
In the case of `C=CC(=O)N1CCN(CCn2c(=O)ccc3cnc(Nc4ccc(N5CCN(S(C)(=O)=O)CC5)cc4)nc32)CC1` [Example 130], at JAK3, the “JAK 3 (pKi)” value was “B (B represents pKi value between 9 and 10 (Ki between 1 nM and 0.1 nM))”; the “JAK3 (pKi)-JAK1 (pKi)” value was “A (A represents a value of 3 or above)”. In addition, the “Tyk 2 (pKi)” value on Tyk2 was “E (E represents a pKi value of 7 or below (Ki of 100 nM or above))”. Further, the “JAK 1 (pKi)” value at JAK1 is “E (E represents a pKi value of 7 or below (Ki of 100 nM or above))”. Besides, on JAK2, the “JAK 2 (pKi)” value was “E (E represents a pKi value of 7 or below (Ki of 100 nM or above))”. In data set [1], the “Tall-1 (pIC50)” value was “B (B represents a pC50 value between 6.7 (included) and 7.5 (IC50 between 200 nM and 32 nM))”. In addition, the “Caco Kp” value in the data set on Caco-2 cell monolayers is given as “A (A represents a value below 5×10^−6 cm/sec)”.
For the molecule `C=CC(=O)N1CCN(CCn2c(=O)ccc3cnc(Nc4cnn(C)c4)nc32)[C@@H](CO)C1` [Example 131], at JAK3, the “JAK 3 (pKi)” value is “B (B represents pKi value between 9 and 10 (Ki between 1 nM and 0.1 nM))”; the “JAK3 (pKi)-JAK1 (pKi)” value is reported as “A (A represents a value of 3 or above)”. The “Tyk 2 (pKi)” value on Tyk2 was “E (E represents a pKi value of 7 or below (Ki of 100 nM or above))”. Further, the “JAK 1 (pKi)” value at JAK1 is “E (E represents a pKi value of 7 or below (Ki of 100 nM or above))”. Further, the “JAK 2 (pKi)” value on JAK2 was “E (E represents a pKi value of 7 or below (Ki of 100 nM or above))”. In data set [1], the “Tall-1 (pIC50)” value was “C (C represents a pIC50 value between 6 and 6.7 (IC50 between 1 μM and 200 nM))”. The “Caco Kp” value in the data set with Caco-2 cell monolayers was “A (A represents a value below 5×10^−6 cm/sec)”.
In the case of `C=CC(=O)N1CC(CCn2c(=O)ccc3cnc(Nc4ccc(N5CCN(C)CC5)c(OC)c4)nc32)C1` [Example 135], at JAK3, the “JAK 3 (pKi)” value is “B (B represents pKi value between 9 and 10 (Ki between 1 nM and 0.1 nM))”; the “JAK3 (pKi)-JAK1 (pKi)” value is given as “A (A represents a value of 3 or above)”. Further, on Tyk2, the “Tyk 2 (pKi)” value was “E (E represents a pKi value of 7 or below (Ki of 100 nM or above))”. In addition, the “JAK 1 (pKi)” value at JAK1 is given as “E (E represents a pKi value of 7 or below (Ki of 100 nM or above))”. Moreover, the “JAK 2 (pKi)” value on JAK2 is reported as “E (E represents a pKi value of 7 or below (Ki of 100 nM or above))”. Besides, the “Tall-1 (pIC50)” value in data set [1] is “B (B represents a pC50 value between 6.7 (included) and 7.5 (IC50 between 200 nM and 32 nM))”. Also, the “Caco Kp” value with Caco-2 cell monolayers is recorded as “A (A represents a value below 5×10^−6 cm/sec)”.
As for `C=CC(=O)N1CC(CCn2c(=O)ccc3cnc(Nc4ccc(N5CCN(C)CC5)c(O)c4)nc32)C1` [Example 136], on JAK3, the “JAK 3 (pKi)” value is “B (B represents pKi value between 9 and 10 (Ki between 1 nM and 0.1 nM))”; the “JAK3 (pKi)-JAK1 (pKi)” value is listed as “A (A represents a value of 3 or above)”. Moreover, the “Tyk 2 (pKi)” value on Tyk2 is listed as “E (E represents a pKi value of 7 or below (Ki of 100 nM or above))”. On JAK1, the “JAK 1 (pKi)” value is listed as “E (E represents a pKi value of 7 or below (Ki of 100 nM or above))”. Also, the “JAK 2 (pKi)” value on JAK2 is listed as “E (E represents a pKi value of 7 or below (Ki of 100 nM or above))”. Further, the “Tall-1 (pIC50)” value in data set [1] was “A (A represents a pIC50 value≥7.5 (IC50≤32 nM))”. For the same molecule, the “Caco Kp” value in the data set on Caco-2 cell monolayers is given as “A (A represents a value below 5×10^−6 cm/sec)”.
As to `C=CC(=O)N1CC(CCn2c(=O)ccc3cnc(Nc4ccc(N5CCN(C)CC5)cn4)nc32)C1` [Example 137], at JAK3, the “JAK 3 (pKi)” value was “B (B represents pKi value between 9 and 10 (Ki between 1 nM and 0.1 nM))”; the “JAK3 (pKi)-JAK1 (pKi)” value is listed as “A (A represents a value of 3 or above)”. Also, the “Tyk 2 (pKi)” value on Tyk2 is “E (E represents a pKi value of 7 or below (Ki of 100 nM or above))”. For the same molecule, at JAK1, the “JAK 1 (pKi)” value is “E (E represents a pKi value of 7 or below (Ki of 100 nM or above))”. Moreover, on JAK2, the “JAK 2 (pKi)” value was “E (E represents a pKi value of 7 or below (Ki of 100 nM or above))”. Further, in data set [1], the “Tall-1 (pIC50)” value was “B (B represents a pC50 value between 6.7 (included) and 7.5 (IC50 between 200 nM and 32 nM))”. Moreover, the “Caco Kp” value in the data set on Caco-2 cell monolayers is given as “A (A represents a value below 5×10^−6 cm/sec)”.
Turning to `C=CC(=O)N1CC(CCn2c(=O)ccc3cnc(Nc4ccc(N5CCN(C(=O)C(C)(C)O)CC5)cc4)nc32)C1` [Example 138], on JAK3, the “JAK 3 (pKi)” value is “A (A represents a pKi value≥10 (Ki≤0.1 nM))” and the “JAK3 (pKi)-JAK1 (pKi)” value is on record as “A (A represents a value of 3 or above)”. Besides, on Tyk2, the “Tyk 2 (pKi)” value is given as “E (E represents a pKi value of 7 or below (Ki of 100 nM or above))”. The “JAK 1 (pKi)” value at JAK1 is recorded as “E (E represents a pKi value of 7 or below (Ki of 100 nM or above))”. At JAK2, the “JAK 2 (pKi)” value was “D (D represents a pKi value between 7 and 8 (Ki between 100 nM and 10 nM))”. The “Tall-1 (pIC50)” value in data set [1] is “B (B represents a pC50 value between 6.7 (included) and 7.5 (IC50 between 200 nM and 32 nM))”. The “Caco Kp” value with Caco-2 cell monolayers is “A (A represents a value below 5×10^−6 cm/sec)”.
Consider `C=CC(=O)N1CC(CCn2c(=O)ccc3cnc(Nc4ccc(N5CCN(C(=O)CC[S+](C)[O-])CC5)cc4)nc32)C1` (stereo not drawn) [Example 139], for which, on JAK3, the “JAK 3 (pKi)” value was “A (A represents a pKi value≥10 (Ki≤0.1 nM))” and the “JAK3 (pKi)-JAK1 (pKi)” value is given as “A (A represents a value of 3 or above)”. Also, the “Tyk 2 (pKi)” value on Tyk2 was “E (E represents a pKi value of 7 or below (Ki of 100 nM or above))”. Moreover, the “JAK 1 (pKi)” value on JAK1 is “E (E represents a pKi value of 7 or below (Ki of 100 nM or above))”. The “JAK 2 (pKi)” value at JAK2 was “E (E represents a pKi value of 7 or below (Ki of 100 nM or above))”. Besides, the “Tall-1 (pIC50)” value in data set [1] was “C (C represents a pIC50 value between 6 and 6.7 (IC50 between 1 μM and 200 nM))”. Further, the “Caco Kp” value in the data set on Caco-2 cell monolayers is listed as “A (A represents a value below 5×10^−6 cm/sec)”.
Consider `C=CC(=O)N1CC(CCn2c(=O)ccc3cnc(Nc4ccc(N5CCN(C(=O)CCS(C)(=O)=O)CC5)cc4)nc32)C1` [Example 140], for which, at JAK3, the “JAK 3 (pKi)” value was “A (A represents a pKi value≥10 (Ki≤0.1 nM))” and the “JAK3 (pKi)-JAK1 (pKi)” value was “A (A represents a value of 3 or above)”. On Tyk2, the “Tyk 2 (pKi)” value is on record as “E (E represents a pKi value of 7 or below (Ki of 100 nM or above))”. Further, the “JAK 1 (pKi)” value at JAK1 is on record as “E (E represents a pKi value of 7 or below (Ki of 100 nM or above))”. For the same molecule, the “JAK 2 (pKi)” value at JAK2 is reported as “E (E represents a pKi value of 7 or below (Ki of 100 nM or above))”. Besides, the “Tall-1 (pIC50)” value in data set [1] is “C (C represents a pIC50 value between 6 and 6.7 (IC50 between 1 μM and 200 nM))”. Further, in the data set on Caco-2 cell monolayers, the “Caco Kp” value is reported as “A (A represents a value below 5×10^−6 cm/sec)”.
